{
  "source": "ChEMBL document CHEMBL5385929",
  "about": "“Tabersonine Enhances Olaparib Sensitivity through FHL1-Mediated Epithelial-Mesenchymal Transition in an Ovarian Tumor” (J Nat Prod, 2024)",
  "key": {"SK-OV-3 [1]": {"test_system": "SK-OV-3", "experiment": "Antiproliferative activity against human SK-OV-3 cells assessed as inhibition of cell viability measured after 48 hrs by CCK8 assay", "assay_type": "functional, cell-based", "conditions": "SK-OV-3, 48 h"}, "A2780 [2]": {"test_system": "A2780", "experiment": "Synergistic antiproliferative activity against human A2780 cells assessed as combination index for reduction of cell viability in presence of olaparib by CCK8 assay", "assay_type": "functional"}, "SK-OV-3 [3]": {"test_system": "SK-OV-3", "experiment": "Synergistic antiproliferative activity against human SK-OV-3 cells assessed as combination index for reduction of cell viability in presence of olaparib by CCK8 assay", "assay_type": "functional"}, "SK-OV-3 [4]": {"test_system": "SK-OV-3", "experiment": "Potentiation of olaparib sensitivity in human SK-OV-3 cells assessed as inhibition of colony formation at 10 uM incubated for 48 hrs in presence of olaparib followed by drug wash-out and incubated in fresh medium for 2 weeks by crystal violet staining based analysis", "assay_type": "functional, cell-based"}, "A2780 [5]": {"test_system": "A2780", "experiment": "Potentiation of olaparib sensitivity in human A2780 cells assessed as induction of DNA damage response by measuring increase in tail moment at 10 uM measured after 48 hrs in presence of olaparib by alkaline comet assay", "assay_type": "functional, cell-based"}, "SK-OV-3 [6]": {"test_system": "SK-OV-3", "experiment": "Potentiation of olaparib sensitivity in human SK-OV-3 cells assessed as induction of DNA damage response by measuring increase in tail moment at 10 uM measured after 48 hrs in presence of olaparib by alkaline comet assay", "assay_type": "functional, cell-based"}, "[7]": {"experiment": "Toxicity in BALB/c mouse xenografted with human A2780 cells assessed as animal's death at 30 mg/kg, ip administered every other day and measured on day 6", "assay_type": "organism-based", "conditions": "in vivo, 144 h, time 6 day"}, "A2780 [8]": {"test_system": "A2780", "experiment": "Antitumor activity against human A2780 cells xenografted in BALB/c mouse assessed as decrease in tumor weight at 5 to 15 mg/kg, ip administered every other day for 2 weeks", "assay_type": "functional, organism-based", "conditions": "dose 5-15 mg/kg"}, "A2780 [9]": {"test_system": "A2780", "experiment": "Potentiation of olaparib-induced antitumor activity against human A2780 cells xenografted in BALB/c mouse assessed as decrease in tumor volume at 15 mg/kg, ip co-administered with olaparib for 2 weeks", "assay_type": "functional, organism-based"}, "SK-OV-3 [10]": {"test_system": "SK-OV-3", "experiment": "Downregulation of EMT signalling in human SK-OV-3 cells assessed as downregulation of N-cadherin protein expression at 10 uM by western blot analysis", "assay_type": "functional, cell-based"}, "SK-OV-3 [11]": {"test_system": "SK-OV-3", "experiment": "Potentiation of olaparib sensitivity in human SK-OV-3 cells assessed as downregulation of EMT signaling by measuring upregulation of E-cadherin protein expression at 10 uM in presence of olaparib by western blot analysis", "assay_type": "functional, cell-based"}, "SK-OV-3 [12]": {"test_system": "SK-OV-3", "experiment": "Potentiation of olaparib sensitivity in human SK-OV-3 cells assessed as downregulation of EMT signaling by measuring downregulation of vimentin protein expression at 10 uM in presence of olaparib by western blot analysis", "assay_type": "functional, cell-based"}, "A2780 [13]": {"test_system": "A2780", "experiment": "Inhibition of cell invasion in human A2780 cells at 10 uM measured after 48 hrs by Transwell assay", "assay_type": "functional, cell-based"}, "SK-OV-3 [14]": {"test_system": "SK-OV-3", "experiment": "Potentiation of olaparib sensitivity in human SK-OV-3 cells assessed as inhibition of cell invasion at 10 uM measured after 48 hrs in presence of olaparib by Transwell assay", "assay_type": "functional, cell-based"}, "A2780 [15]": {"test_system": "A2780", "experiment": "Upregulation of FHL1 protein expression in human A2780 cells by western blot analysis", "assay_type": "functional, cell-based", "conditions": "dose 5-20 µM"}, "SK-OV-3 [16]": {"test_system": "SK-OV-3", "experiment": "Upregulation of FHL1 protein expression in human SK-OV-3 cells by western blot analysis", "assay_type": "functional, cell-based", "conditions": "dose 5-20 µM"}, "A2780 [17]": {"test_system": "A2780", "experiment": "Downregulation of EMT signalling in human A2780 cells transfected with shFHL1-1 RNA assessed as vimentin protein expression at 10 uM by western blot analysis", "assay_type": "functional, cell-based"}, "SK-OV-3 [18]": {"test_system": "SK-OV-3", "experiment": "Downregulation of EMT signalling in human SK-OV-3 cells transfected with shFHL1-1 RNA assessed as N-cadherin protein expression at 10 uM by western blot analysis", "assay_type": "functional, cell-based"}, "SK-OV-3 [19]": {"test_system": "SK-OV-3", "experiment": "Downregulation of EMT signalling in human SK-OV-3 cells transfected with shFHL1-2 RNA assessed as E-cadherin protein expression at 10 uM by western blot analysis", "assay_type": "functional, cell-based"}, "SK-OV-3 [20]": {"test_system": "SK-OV-3", "experiment": "Downregulation of EMT signalling in human SK-OV-3 cells transfected with shFHL1-2 RNA assessed as vimentin protein expression at 10 uM by western blot analysis", "assay_type": "functional, cell-based"}, "SK-OV-3 [21]": {"test_system": "SK-OV-3", "experiment": "Inhibition of cell migration in human SK-OV-3 cells transfected with shFHL1-1 RNA at 10 uM measured after 24 to 48 hrs by wound healing assay", "assay_type": "functional, cell-based", "conditions": "time 24-48 hrs"}, "SK-OV-3 [22]": {"test_system": "SK-OV-3", "experiment": "Inhibition of cell migration in human SK-OV-3 cells transfected with shFHL1-2 RNA at 10 uM measured after 24 to 48 hrs by wound healing assay", "assay_type": "functional, cell-based", "conditions": "time 24-48 hrs"}, "A2780 [23]": {"test_system": "A2780", "experiment": "Potentiation of olaparib sensitivity in human A2780 cells transfected with shFLH1-1 RNA assessed as downregulation of EMT signaling by measuring N-cadherin protein expression at 10 uM in presence of olaparib by western blot analysis", "assay_type": "functional, cell-based"}, "A2780 [24]": {"test_system": "A2780", "experiment": "Potentiation of olaparib sensitivity in human A2780 cells transfected with shFLH1-2 RNA assessed as downregulation of EMT signaling by measuring N-cadherin protein expression at 10 uM in presence of olaparib by western blot analysis", "assay_type": "functional, cell-based"}, "SK-OV-3 [25]": {"test_system": "SK-OV-3", "experiment": "Potentiation of olaparib sensitivity in human SK-OV-3 cells transfected with shFLH1-2 RNA assessed as downregulation of EMT signaling by measuring E-cadherin protein expression at 10 uM in presence of olaparib by western blot analysis", "assay_type": "functional, cell-based"}, "A2780 [26]": {"test_system": "A2780", "experiment": "Potentiation of olaparib sensitivity in human A2780 cells transfected with shFHL1-2 RNA assessed as inhibition of cell migration at 10 uM measured after 24 to 48 hrs in presence of olaparib by wound healing assay", "assay_type": "functional, cell-based", "conditions": "time 24-48 hrs"}, "SK-OV-3 [27]": {"test_system": "SK-OV-3", "experiment": "Potentiation of olaparib sensitivity in human SK-OV-3 cells transfected with shFHL1-2 RNA assessed as inhibition of cell migration at 10 uM measured after 24 to 48 hrs in presence of olaparib by wound healing assay", "assay_type": "functional, cell-based", "conditions": "time 24-48 hrs"}, "Mus musculus [28]": {"test_system": "Mus musculus", "experiment": "Potentiation of olaparib sensitivity in BALB/c mouse xenografted with shNC RNA-transfected human A2780 cells assessed as upregulation of E-cadherin protein expression in tumor at 15 mg/kg, ip co-administered with olaparib for 2 weeks by western blot analysis", "assay_type": "functional, organism-based"}, "Mus musculus [29]": {"test_system": "Mus musculus", "experiment": "Potentiation of olaparib sensitivity in BALB/c mouse xenografted with shNC RNA-transfected human A2780 cells assessed as upregulation of FHL1 protein expression in tumor at 15 mg/kg, ip co-administered with olaparib for 2 weeks by western blot analysis", "assay_type": "functional, organism-based"}, "Mus musculus [30]": {"test_system": "Mus musculus", "experiment": "Potentiation of olaparib sensitivity in BALB/c mouse xenografted with shNC RNA-transfected human A2780 cells assessed as downregulation of N-cadherin protein expression in tumor at 15 mg/kg, ip co-administered with olaparib for 2 weeks by western blot analysis", "assay_type": "functional, organism-based"}, "Mus musculus [31]": {"test_system": "Mus musculus", "experiment": "Potentiation of olaparib sensitivity in BALB/c mouse xenografted with shNC RNA-transfected human A2780 cells assessed as downregulation of vimentin protein expression in tumor at 15 mg/kg, ip co-administered with olaparib for 2 weeks by western blot analysis", "assay_type": "functional, organism-based"}, "Mus musculus [32]": {"test_system": "Mus musculus", "experiment": "Potentiation of olaparib sensitivity in BALB/c mouse xenografted with shFHL1-1 RNA-transfected human A2780 cells assessed as downregulation of vimentin protein expression in tumor at 15 mg/kg, ip co-administered with olaparib for 2 weeks by western blot analysis", "assay_type": "functional, organism-based"}, "Mus musculus [33]": {"test_system": "Mus musculus", "experiment": "Potentiation of olaparib sensitivity in BALB/c mouse xenografted with shFHL1-1 RNA-transfected human A2780 cells assessed as increase in FHL1 protein expression in tumor at 15 mg/kg, ip co-administered with olaparib for 2 weeks by immunohistochemistry", "assay_type": "functional, organism-based"}},
  "note": "pIC50: −log10 of the molar value. Active and inactive are the calls of the source. The rule behind the calls is not given here.",
  "data": [
    {"smiles": "CC[C@]12C=CCN3CC[C@]4(C(=C(C(=O)OC)C1)Nc1ccccc14)[C@@H]32", "note": "[TABERSONINE]", "values": [
      {"measurement": "pIC50", "setting": "SK-OV-3 [1]", "value": 4.60},
      {"measurement": "CI", "setting": "A2780 [2]", "value": "<1"},
      {"measurement": "CI", "setting": "SK-OV-3 [3]", "value": "<1"},
      {"measurement": "Activity", "setting": "SK-OV-3 [4]", "value": "Active"},
      {"measurement": "Activity", "setting": "A2780 [5]", "value": "Active"},
      {"measurement": "Activity", "setting": "SK-OV-3 [6]", "value": "Active"},
      {"measurement": "Activity", "setting": "[7]", "value": "Toxic"},
      {"measurement": "Activity", "setting": "A2780 [8]", "value": "Active"},
      {"measurement": "Activity", "setting": "A2780 [9]", "value": "Active"},
      {"measurement": "inhibition", "setting": "SK-OV-3 [10]", "value": "Active"},
      {"measurement": "Activity", "setting": "SK-OV-3 [11]", "value": "Active"},
      {"measurement": "Activity", "setting": "SK-OV-3 [12]", "value": "Active"},
      {"measurement": "inhibition", "setting": "A2780 [13]", "value": "Active"},
      {"measurement": "Activity", "setting": "SK-OV-3 [14]", "value": "Active"},
      {"measurement": "Activity", "setting": "A2780 [15]", "value": "Dose-Dependent Effect"},
      {"measurement": "Activity", "setting": "SK-OV-3 [16]", "value": "Dose-Dependent Effect"},
      {"measurement": "inhibition", "setting": "A2780 [17]", "value": "inactive"},
      {"measurement": "inhibition", "setting": "SK-OV-3 [18]", "value": "inactive"},
      {"measurement": "inhibition", "setting": "SK-OV-3 [19]", "value": "inactive"},
      {"measurement": "inhibition", "setting": "SK-OV-3 [20]", "value": "inactive"},
      {"measurement": "inhibition", "setting": "SK-OV-3 [21]", "value": "inactive"},
      {"measurement": "inhibition", "setting": "SK-OV-3 [22]", "value": "inactive"},
      {"measurement": "Activity", "setting": "A2780 [23]", "value": "inactive"},
      {"measurement": "Activity", "setting": "A2780 [24]", "value": "inactive"},
      {"measurement": "Activity", "setting": "SK-OV-3 [25]", "value": "inactive"},
      {"measurement": "Activity", "setting": "A2780 [26]", "value": "inactive"},
      {"measurement": "Activity", "setting": "SK-OV-3 [27]", "value": "inactive"},
      {"measurement": "Activity", "setting": "Mus musculus [28]", "value": "Active"},
      {"measurement": "Activity", "setting": "Mus musculus [29]", "value": "Active"},
      {"measurement": "Activity", "setting": "Mus musculus [30]", "value": "Active"},
      {"measurement": "Activity", "setting": "Mus musculus [31]", "value": "Active"},
      {"measurement": "Activity", "setting": "Mus musculus [32]", "value": "inactive"},
      {"measurement": "Activity", "setting": "Mus musculus [33]", "value": "inactive"}
    ]}
  ]
}
